Key:
[1] = tested on: nerve terminal; details: cited from earlier work
[2] = tested on: neurons; details: following spinal cord, head injury, and cerebral ischemia; by blocking excitotoxicity; cited from earlier work
[3] = tested on: human cells; details: cited from earlier work
[4] = tested on: ALS patients; details: cited from earlier work
[5] = tested on: CMT2 neurons; experiment: Acetylated α-tubulin levels in CMT2 neurons after HDAC6 inhibitor treatment; assay type: cell-based, human; details: data not shown
Source text: Treatment with this compound was also found to improve both the absolute velocity and the total number of moving axonal mitochondria. Decreased acetylated α-tubulin abundance is a characteristic feature of CMT2, and has been directly linked to severe axonal transport deficits in mouse models of the disease. […] The NMJ platform constitutes the ideal model for performing assessment of whether the reported changes result in restoration of WT NMJ phenotypes. Furthermore, the establishment of methods for screening compound action using this platform is translatable to other drug candidates and models of other neuropathic disease states.

[6] = tested on: CMT2 neurons; experiment: Live cell imaging of mitochondrial transport along axons of CMT2 iPSC motor neurons; assay type: cell-based, human
Experimental: Mitochondrial transport along axons is evaluated using live cell imaging of cultured neurons. Cells are infected with a lentiviral vector expressing mitochondrially targeted fluorescent probe dsRed (mito-dsRed) permitting real-time assessment of mitochondrial movement. Cells are placed within an environmental chamber mounted on an epifluorescent microscope and mitochondrial movement is recorded for 10 minutes with 3-second time-lapse intervals. Image analysis is performed with ImageJ, and Matlab code can be used, for example, to calculate mitochondrial velocity by measuring the distance between the position of individual mitochondria at the start and end of time-lapse recordings and dividing by the time elapsed. This provides a measure of overall transport velocity that includes anterograde and retrograde movements and stationary periods. Mitochondria are then classified as motile (velocity >0.1 μm s-1) or stationary (velocity ≤0.1 μm s-1), in line with disclosed methods (see e.g., Saporta et al. Experimental neurology. 2015; 263:190-9). Immunostaining is used to quantify mitochondrial density within the developing growth cone of cultured neurons as a means to evaluate the effect of altered transport on presynaptic development. To account for time dependent maturation, neurons are evaluated for all end-points following 1, 2, 3, and 4 weeks in culture. […]

In the case of `Nc1ccncc1N` [3,4-diaminopyridine], the “acetylcholine release from the nerve terminal” value [1] is listed as “enhances” and the “conduction in unmyelinated nerves” value [1] is listed as “improves”.
In the case of `Cc1cccc(C)c1OCC(C)N` (centres unmarked) [Mexiletine], the protection of neurons [2] is given as “protective of neurons”.
For `O=C(NCCO[N+](=O)[O-])c1cccnc1` [Nicorandil], the “mitochondrial production of reactive oxygen species (ROS)” value [3] is given as “limit mitochondrial production of reactive oxygen species”.
In the case of `Nc1nc2ccc(OC(F)(F)F)cc2s1` [Riluzole], the prolongation of life [4] is listed as “prolonging life by a few months”.
For `CN1CCc2c(c3ccccc3n2Cc2ccc(C(=O)NO)cc2)C1` [Tubastatin A], the “levels of acetylated α-tubulin” value [5] was “significantly improved”, the “absolute velocity of moving axonal mitochondria” value [6] was “improve” and the “total number of moving axonal mitochondria” value [6] was “improve”.

Source: patent US20210348107A1, “DEVICE AND SYSTEMS COMPRISING ELECTRODE ARRAYS FOR ELECTROCONDUCTIVE CELLS” (UNIVERSITY OF WASHINGTON, priority 2018, published 2021)
